We go through 10 compounds from publication PMC11270730, “Isolation and In Vitro Biological Evaluation of Triterpenes from Salacia grandifolia Leaves” (ACS Omega, 2024).

SMILES strings stand for the structures.

The test system of data set [1] is K-562 cells. As to the kind of experiment: Cytotoxic MTT assay, K-562. The conditions noted are these: Homo sapiens, K562; K-562, MTT, 48 h, mean ± SD of two independent experiments. The class given is cell-based. The protocol: (§1) The cytotoxicity of compounds was evaluated against the K-562 (chronic myeloid leukemia, ATCC CCL-243) and THP-1 (acute monocytic leukemia, ATCC TIB-202) cell lines. […] For the cytotoxicity assessment, cells were planted in 96-well microplates (1 × 10^4 cells per well) containing RPMI 1640 medium (Roswell Park Memorial Institute, Cultilab, Campinas, SP, Brazil) supplemented with 10% FBS (Cultilab, Campinas, SP, Brazil), 100 U/mL penicillin, 100 μg/mL streptomycin, and 10 mM HEPES, pH 7.4. The cells were incubated in a humidified incubator at 37 °C with 5% CO2 until the assay was performed. […] After 48 h of incubation, 100 μL of MTT salt at a concentration of 0.5 mg/mL was added to each well. The plate was then incubated for 3 h. After the incubation period, the supernatant was removed, and 50 μL of DMSO was added to each well to solubilize the formazan crystals. The absorbance per well was measured at a wavelength of 550 nm using a microplate reader (Versamax, Molecular Devices, USA). The minimum concentration that inhibited 50% of cell viability (IC50) in the presence of the tested compounds was determined by comparing it with cells cultured without the compounds (considered 100% viable).

The test system of data set [2] is MHV-3. Briefly: Antiviral MTT assay against MHV-3 in L929 cells (EC50). The format is cell-based, mouse hepatitis virus 3 (murine coronavirus). Particulars: for EC50: Murine coronavirus, MHV-3 in L929 cells, MOI 0.1, MTT, NA: not active. As for the experimental part:
(§2) The antiviral activity of isolated compounds and extracts was evaluated against the murine coronavirus MHV-3. Initially, the viability of L929 (mouse adipose fibroblasts; ATCC CCL-1) cells was assessed using the MTT (3-(4,5-dimethylthiazol-2-yl)-2,5-diphenyltetrazolium bromide (Thermo Fisher Scientific, USA) assay.[11] Cells were cultured at 37 °C and 5% CO2 in Dulbecco’s modified Eagle medium (DMEM; Cultilab, Brazil) supplemented with 5% fetal bovine serum (FBS; Cultilab, Brazil), 100 IU/mL of penicillin (Cellofarm, Brazil), 100 μg/mL of streptomycin (Merck, Germany) and 0.25 μg/mL of amphotericin B (Cultilab, Brazil). Cells were seeded in 96-well microplates (4 × 10^4 cells per well) and added 200 μL of DMEM with 1% de FBS containing the diluted compounds and extracts to be tested (100 to 1.56 μM or 200 to 3.125 μg/mL). Serial dilutions of DMSO were used as a vehicle control. Additionally, a 10% v/v inhibition control of DMSO was used. After 72 h of incubation under the same conditions, media was removed and 100 μL of MTT diluted in DMEM (0.5 mg/mL) were added to each well and incubated for 3 h. Last, media was removed, and 100 μL of DMSO were added to each well to solubilize the formazan crystals. The absorbance was read at 570 nm using a spectrophotometer (Versamax, Molecular Devices, EUA). The percentages of cell viability inhibition were calculated as the ratio between the absorbance of cells treated with the compounds relative to the vehicle control. Linear regression was used to calculate CC50 values, considering only those data for which r^2 > 0.9. The 50% cytotoxic concentration (CC50) is defined as the highest concentration of a specific compound that reduces cell viability by 50%. All conditions were tested in two independent assays in triplicate.
Here, the same conditions as that used for CC50 were used, with the only difference being the concentrations of the samples (up to 8-fold dilution from the CC50 values for the compounds) diluted in 100 μL and added to 100 μL of viral suspension at a multiplicity of infection (MOI) of 0.1, that is, one viral particle per 10 cells in culture. Ribavirin was used as the positive control. The EC50 value was calculated as the percentage ratio between the absorbance of infected cells treated with the compounds and cells treated only with the vehicle. Last, the selectivity index (SI) was calculated using the ratio between CC50 and EC50. All conditions were tested in two independent assays in triplicate.

The test system of data set [3] is THP-1 cells. As to the kind of experiment: Cytotoxic MTT assay, THP-1. The class given is cell-based. Particulars: Homo sapiens; THP-1, MTT, 48 h, mean ± SD of two independent experiments. As for the experimental part:
as §1

Data set [4] in a line: L929 cell viability, MTT assay (CC50). The conditions noted are these: mouse. As for the experimental part: as §2

On to `CC1C(=O)CCC2C1(C)CCC1C2(C)CCC2(C)C3CC(C)(C)CCC3(CO)CC(=O)C12C` (centres unmarked) [Compound 1, 28-hydroxyfriedelane-3,15-dione], for which the IC50 in data set [1] was 259 ± 33 µM; in data set [3] it was 539 ± 43 µM. In addition, the EC50 in data set [2] worked out at 69 ± 6 µM. For the same compound, the CC50 at 72 h in data set [4] was > 100 µM.

As to `C[C@H]1C(=O)CC[C@@H]2[C@]1(C)CC[C@H]1[C@@]2(C)CC[C@@]2(C)[C@@H]3CC(C)(C)CC[C@]3(C)CC[C@]12C` [Compound 2, friedelan-3-one], the CC50 at 72 h in data set [4] is > 100 µM.

Consider `C[C@H]1[C@@H](O)CC[C@@H]2[C@]1(C)CC[C@H]1[C@@]2(C)CC[C@@]2(C)[C@@H]3CC(C)(C)CC[C@]3(C)CC[C@]12C` [Compound 3, friedelan-3β-ol], for which the CC50 at 72 h in data set [4] is > 100 µM.

As to `C[C@H]1C(=O)CC[C@@H]2[C@]1(C)CC[C@H]1[C@@]2(C)CC[C@@]2(C)[C@@H]3CC(C)(C)CC[C@]3(C)CC(=O)[C@]12C` [Compound 4, friedelane-3,15-dione], the half-maximal inhibitory concentration (IC50) in data set [1] turned out to be 593 ± 44 µM; in data set [3], 350 ± 43 µM. Besides, the antiviral activity entry in data set [2] (MHV-3, up to 100 μM) is given as “no antiviral activity”. Further, in data set [4], the CC50 at 72 h is > 100 µM.

For `C[C@H]1C(=O)CC[C@@H]2[C@]1(C)CC[C@H]1[C@@]2(C)CC[C@@]2(C)[C@@H]3CC(C)(C)CC[C@]3(C)C[C@H](O)[C@]12C` [Compound 5, 15α-hydroxyfriedelan-3-one], the CC50 at 72 h in data set [4] was > 100 µM.

With `C[C@H]1C(=O)CC[C@@H]2[C@]1(C)CC[C@H]1[C@@]2(C)CC[C@@]2(C)[C@@H]3CC(C)(C)CC[C@]3(CO)CC[C@]12C` [Compound 6, 28-hydroxyfriedelan-3-one], the results for the IC50 in data set [1] and in data set [3] were 318 ± 41 µM and 623 ± 12 µM, respectively. The “increase in activity compared to triterpene 1” value in data set [2] (MHV-3 antiviral activity, 6 versus 1) is given as 23 times. Also, in data set [2], the EC50 turned out to be 2.9 ± 0.3 µM. Also, in data set [4], the CC50 at 72 h was > 100 µM.

Consider `C[C@H]1C(=O)CC[C@@H]2[C@]1(C)CC[C@H]1[C@@]2(C)CC[C@@]2(C)[C@@H]3C[C@@](C)(CO)CC[C@]3(C)CC[C@]12C` [Compound 7, 30-hydroxyfriedelan-3-one], for which the half-maximal inhibitory concentration (IC50) was determined as 361 ± 52 µM in data set [1] and 385 ± 21 µM in data set [3]. For the same compound, the CC50 at 72 h in data set [4] was > 100 µM.

`C[C@H]1C(=O)CC[C@@H]2[C@]1(C)CC[C@H]1[C@@]2(C)CC[C@@]2(C)[C@@H]3C[C@](C)(CO)CC[C@]3(C)CC[C@]12C` [Compound 8, 29-hydroxyfriedelan-3-one]: in data set [4], the CC50 at 72 h is > 100 µM.

`Nc1ccn([C@@H]2O[C@H](CO)[C@@H](O)[C@@H]2O)c(=O)n1` [cytarabine, reference compound] gave an IC50 in data set [3] of 41 ± 8 µM.

As to `NC(=O)c1ncn([C@@H]2O[C@H](CO)[C@@H](O)[C@H]2O)n1` [ribavirin, reference compound], in data set [2], the EC50 is < 10 µM. In addition, the CC50 at 72 h in data set [4] is > 100 µM.
